Here are results for one sequence from patent US9315544B2, “Method of treating eosinophilia by administering an immunomodulating peptide” (National Tsing Hua University, priority 2012, dated 2016).

One assay relates to IL-13. Description: Cytokine ELISA of lung protein extract (IL-13). The format is in vivo, BALB/c mouse. Conditions: eIN+mIT, mIT+eIN and eIN+mIT+eIN groups. The source says: FIG. 4 illustrates experimental design. All groups except control group were immunized with mite crude extract allergen on days 1 and 8, then mite crude extract allergen intratracheally on day 15 in all mite treated group, BALB/c mouse were divided into six groups (1) control group (PBS), (2) mites delivered intratracheally (mIT, mite on day 15) alone, (3) CMP intranasal (eIN, CMP on days 1 to 22) alone, (4) preventive-treatment group (eIN+mIT, CMP on days 1 to 14, mite on day 15) (5) therapy-treatment group (mIT+eIN, mite on day 15, CMP on days 15 to 22), and (6) preventive- and therapeutic-treatment group (eIN+mIT+eIN, CMP on days 1 to 22, mite on day 15).
FIG. 9 illustrates inhibitory effect of CMP on lung protein extract. Lung protein extracts from different groups of mouse were assayed for the indicated cytokines. Data represent one of three independent experiments. Levels of CCL-11, IL-5, IL-13 and IL-17A/F levels in lung protein extracts from mouse from treatment groups were measured by Enzyme-linked immunosorbent assay (ELISA). Each result was expressed as the mean±S.D., n=4. **, P<0.01, ***, P<0.001. […]
Levels of cytokines from lung protein extract were measured by ELISA. […] The microplates were read at 450 nm with an ELISA reader (Thermo Labsystems, Waltham, Mass., USA). […]
A general note: ELISA stands for enzyme-linked immunosorbent assay.

Another assay concerns mouse colon cancer cells. Description: Transwell migration assay, mouse colon cancer cells. It counts as cell-based. Conditions: 5 μM CMP pretreatment 30 min, 18 hours. The method, then: FIG. 10 illustrates Tumor migration inhibition by CMP. A549, H460 and mouse colon cancer cells were incubated with CMP at 37° C. for 30 min before adding to the top chamber of transwell membranes in 24-well dishes at a density of 2×10^4 cells/well. Data represented the mean±S.E. of triplicate samples from a representative experiment. The experiment was repeated at least three times with similar results
Cancer cell inhibition by CMP was performed in a 24-well Transwell chamber consisting of a cell culture insert (6.4 mm diameter, 8-1 μm pore polyethylene tetraphtalate membrane, [Becton Dickinson]) set in each well of a 24-well companion plate (Becton Dickinson). Briefly, 3×10^4 cancer cells were suspended and pretreated with 5 and 12.5 μM CMP for 30 min in a total volume of 200 μL. Cell suspensions were inoculated into the upper chamber of an insert, 5% fetal bovine serum (FBS) in medium as a chemoattractant was added to the plate well in the bottom chamber, and incubated for 18 hours in a humidified incubator at 37° C. with 5% CO2. The non-migratory cells on the upper membrane surface were removed with a cotton swab, and the migratory cells attached to the lower membrane surface were fixed with 4% paraformaldehyde and stained with 0.2% crystal violet. The number of migrated cells was counted in four randomly selected high power fields under microscope. […]

For the sequence NYRWRCKNQN (CMP), in the assay with IL-13, the “IL-13 in lung protein extract compared with mIT group” value was “lower concentrations”. The “decrease of migration activity” value in the assay with mouse colon cancer cells is given as 60%.
